Several values for one entry are separate records, joined by “and”; a condition that tells them apart may be missing. Equal values may be shown once. Read-outs that look alike come from different tables or passages of the source.
Format: in vivo, beagle dogs
Description: Once adequately conditioned to the restraint device and face-masks, the animals are individually exposed to the test article aerosols. Animals receive a single face-mask inhalation exposure in a ramp study design to test article aerosols for up to 60 min. Animal observations during and post exposure determine the tolerance of inhaled BisEDT aerosols.
Blood Collections and Bioanalytical Analysis: Blood are collected for pharmacokinetic (PK) analysis prior to exposure, then at 4 hr (±5 min) post exposure, and again on Day 1, Day 2, Day 7 (pre- and 4 hr (±5 min)-post exposure), Day 8, Day 9, Day 10, Day 11, Day 12, Day 13, and Day 14. A total of 0.25 mL is collected at each timepoint. No PK blood is collected from the vehicle control (Group 1) animals; only animals exposed to BisEDT have blood collected for PK analysis. Collected samples are flash frozen without processing for shipment to Medpace for bioanalytical analysis. Additional blood is collected from all animals in all groups for hematology (1 mL) and clinical chemistry (1 mL) at baseline, Day 7 (pre-exposure), and again at euthanasia. Blood (2-2 mL) is collected from all animals at necropsy for coagulation analysis (d-Dimer, fibrinogen, PT, and PTT).
For clinical chemistry analyses, whole blood (1 mL) is placed into serum separator or clot tube and […] by centrifugation at a minimum of 1300 g at 2 to 8° C. for 10 (±1) min. Plasma samples are stored at −70 to −90° C. until analysis.
Clinical chemistry samples are analyzed on a Hitachi Modular Analytics Clinical Chemistry System (Roche Diagnostics, Indianapolis, Ind.).

C1C[S][Bi]([S]CC[S][Bi]2[S]CC[S]2)[S]1 [BisEDT, Bismuth-1,2-ethanedithiol]
GGT (dog 4002 Female): 3 IU/L
GLOB (dog 4002 Female): 2.1 g/dL and 2.0 g/dL
GLUC (dog 4002 Female): 106 mg/dL and 79 mg/dL
K (dog 4002 Female): 5.3 mmo/L
Na (dog 4002 Female): 153 mmo/L and 149 mmo/L
TBIL (dog 4002 Female): 0.15 mg/dL
TP (dog 4002 Female): 5.6 g/dL and 5.5 g/dL
TRIG (dog 4002 Female): 34 mg/dL and 41 mg/dL
AGR (dog 4003 Male): 1.8 and 1.6
ALB (dog 4003 Male): 3.5 g/dL and 3.3 g/dL
ALPK (dog 4003 Male): 146 IU/L and 129 IU/L
ALT (dog 4003 Male): 40 IU/L and 23 IU/L
AST (dog 4003 Male): 30 IU/L and 33 IU/L
BUN (dog 4003 Male): 16 mg/dL and 15 mg/dL
CA2 (dog 4003 Male): 11.2 mg/dL and 11.0 mg/dL
CHOL (dog 4003 Male): 152 mg/dL and 176 mg/dL
CREA (dog 4003 Male): 0.6 mg/dL and 0.7 mg/dL
Cl (dog 4003 Male): 117 mmo/L and 112 mmo/L
GGT (dog 4003 Male): 3 IU/L
GLOB (dog 4003 Male): 1.9 g/dL and 2.1 g/dL
GLUC (dog 4003 Male): 109 mg/dL and 81 mg/dL
K (dog 4003 Male): 4.9 mmo/L
Na (dog 4003 Male): 149 mmo/L and 147 mmo/L
TBIL (dog 4003 Male): 0.15 mg/dL
TP (dog 4003 Male): 5.4 g/dL
TRIG (dog 4003 Male): 55 mg/dL and 53 mg/dL
AGR (dog 4004 Female): 2.0 and 1.7 and 1.9
ALB (dog 4004 Female): 3.4 g/dL and 3.3 g/dL
ALPK (dog 4004 Female): 103 IU/L and 93 IU/L and 95 IU/L
ALT (dog 4004 Female): 28 IU/L and 25 IU/L and 24 IU/L
AST (dog 4004 Female): 33 IU/L and 38 IU/L and 31 IU/L
BUN (dog 4004 Female): 13 mg/dL
CA2 (dog 4004 Female): 10.8 mg/dL and 10.6 mg/dL
CHOL (dog 4004 Female): 125 mg/dL and 124 mg/dL and 112 mg/dL
CREA (dog 4004 Female): 0.6 mg/dL
Cl (dog 4004 Female): 119 mmo/L and 115 mmo/L and 114 mmo/L
GGT (dog 4004 Female): 3 IU/L
GLOB (dog 4004 Female): 1.7 g/dL and 1.9 g/dL
GLUC (dog 4004 Female): 102 mg/dL and 70 mg/dL and 96 mg/dL
K (dog 4004 Female): 4.6 mmo/L and 5.1 mmo/L and 4.3 mmo/L
Na (dog 4004 Female): 153 mmo/L and 148 mmo/L and 146 mmo/L
TBIL (dog 4004 Female): 0.15 mg/dL
TP (dog 4004 Female): 5.1 g/dL and 5.2 g/dL and 5.0 g/dL
TRIG (dog 4004 Female): 53 mg/dL and 49 mg/dL and 44 mg/dL
AGR (dogs, Grp 2 Avg): 1.8 and 2.2 and 2.1
ALB (dogs, Grp 2 Avg): 3.3 g/dL and 3.5 g/dL and 3.6 g/dL
ALPK (dogs, Grp 2 Avg): 186 IU/L and 126 IU/L and 116 IU/L
ALT (dogs, Grp 2 Avg): 20 IU/L and 26 IU/L and 25 IU/L
AST (dogs, Grp 2 Avg): 42 IU/L and 39 IU/L and 37 IU/L
BUN (dogs, Grp 2 Avg): 13 mg/dL and 15 mg/dL
CA2 (dogs, Grp 2 Avg): 10.9 mg/dL and 10.8 mg/dL
CHOL (dogs, Grp 2 Avg): 153 mg/dL and 145 mg/dL and 133 mg/dL
CREA (dogs, Grp 2 Avg): 0.7 mg/dL and 0.6 mg/dL
Cl (dogs, Grp 2 Avg): 110 mmo/L and 114 mmo/L and 111 mmo/L
GGT (dogs, Grp 2 Avg): 3 IU/L
GLOB (dogs, Grp 2 Avg): 1.8 g/dL and 1.7 g/dL
GLUC (dogs, Grp 2 Avg): 93 mg/dL and 98 mg/dL and 96 mg/dL
K (dogs, Grp 2 Avg): 4.8 mmo/L and 5.1 mmo/L and 4.7 mmo/L
Na (dogs, Grp 2 Avg): 149 mmo/L and 147 mmo/L and 148 mmo/L
TBIL (dogs, Grp 2 Avg): 0.15 mg/dL
TP (dogs, Grp 2 Avg): 5.1 g/dL and 5.2 g/dL and 5.4 g/dL
TRIG (dogs, Grp 2 Avg): 52 mg/dL and 60 mg/dL and 47 mg/dL
AGR (dogs, Grp 3 Avg): 2.2 and 1.9 and 2.4
ALB (dogs, Grp 3 Avg): 3.4 g/dL and 3.5 g/dL and 3.6 g/dL
ALPK (dogs, Grp 3 Avg): 153 IU/L and 113 IU/L and 149 IU/L
ALT (dogs, Grp 3 Avg): 27 IU/L and 22 IU/L and 21 IU/L
AST (dogs, Grp 3 Avg): 30 IU/L and 32 IU/L
CA2 (dogs, Grp 3 Avg): 11.0 mg/dL and 10.7 mg/dL and 10.2 mg/dL
CHOL (dogs, Grp 3 Avg): 113 mg/dL and 143 mg/dL and 126 mg/dL
CREA (dogs, Grp 3 Avg): 0.6 mg/dL and 1.0 mg/dL
Cl (dogs, Grp 3 Avg): 112 mmo/L and 110 mmo/L
GGT (dogs, Grp 3 Avg): 3 IU/L
GLOB (dogs, Grp 3 Avg): 1.6 g/dL and 1.9 g/dL and 1.5 g/dL
GLUC (dogs, Grp 3 Avg): 106 mg/dL and 89 mg/dL and 58 mg/dL
K (dogs, Grp 3 Avg): 5.1 mmo/L and 5.2 mmo/L and 5.9 mmo/L
Na (dogs, Grp 3 Avg): 148 mmo/L and 146 mmo/L and 149 mmo/L
TBIL (dogs, Grp 3 Avg): 0.15 mg/dL
TP (dogs, Grp 3 Avg): 4.9 g/dL and 5.3 g/dL and 5.1 g/dL
TRIG (dogs, Grp 3 Avg): 30 mg/dL and 39 mg/dL and 55 mg/dL
AGR (dogs, Grp 4 Avg): 2.2 and 1.8 and 1.9
ALB (dogs, Grp 4 Avg): 3.5 g/dL and 3.4 g/dL and 3.3 g/dL
ALPK (dogs, Grp 4 Avg): 103 IU/L and 104 IU/L and 107 IU/L
ALT (dogs, Grp 4 Avg): 28 IU/L and 26 IU/L
AST (dogs, Grp 4 Avg): 33 IU/L and 39 IU/L
BUN (dogs, Grp 4 Avg): 12 mg/dL and 13 mg/dL
CA2 (dogs, Grp 4 Avg): 10.8 mg/dL and 10.7 mg/dL and 10.5 mg/dL
CHOL (dogs, Grp 4 Avg): 139 mg/dL and 136 mg/dL and 112 mg/dL
CREA (dogs, Grp 4 Avg): 0.7 mg/dL and 0.6 mg/dL
Cl (dogs, Grp 4 Avg): 120 mmo/L and 116 mmo/L and 114 mmo/L
GGT (dogs, Grp 4 Avg): 3 IU/L
GLOB (dogs, Grp 4 Avg): 1.7 g/dL and 1.9 g/dL
GLUC (dogs, Grp 4 Avg): 102 mg/dL and 76 mg/dL and 91 mg/dL
K (dogs, Grp 4 Avg): 4.7 mmo/L and 5.0 mmo/L and 4.5 mmo/L
Na (dogs, Grp 4 Avg): 153 mmo/L and 148 mmo/L and 146 mmo/L
TBIL (dogs, Grp 4 Avg): 0.15 mg/dL
TP (dogs, Grp 4 Avg): 5.2 g/dL and 5.3 g/dL and 5.0 g/dL
TRIG (dogs, Grp 4 Avg): 51 mg/dL and 48 mg/dL and 42 mg/dL
